Assay [1] concerns MS751 cells. Kind of assay: MTT cell proliferation assay, MS751. The conditions noted are these: Homo sapiens, MS751, MS751 cells, read-out: MTT Assay IC50, MS751. It counts as cell-based, human. Put shortly: (§1)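 Seeding 5,000-10,000 cells/well, overnight attachment; 8 concs, 1 nM–30 μM. MTT ~4 h, formazan solubilized, OD 490 nm. % inhibition vs negative control, mostly duplicate, mean±SE.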

Assay [2] deals with Z138 cells. Kind of assay: MTT cell proliferation assay, Z138. It counts as cell-based. The conditions noted are these: Homo sapiens, Z-138, Z138 cells, read-out: MTT Assay IC50, Z138. A digest of the protocol:
as §1
(In general: Tetrazolium dyes change colour on reduction, which living cells bring about.)

Assay [3] has as its system 3T3 cells. As to the kind of experiment: MTT cell proliferation assay, 3T3. It counts as cell-based, mouse. To be noted: Mus musculus, NIH3T3, 3T3 cells, read-out: MTT Assay IC50, 3T3. A digest of the protocol: as §1
Setting [4] is: approximately 64-72 hours incubation.
[5] abbreviates: eight concentrations 1 nM to 30 μM, incubation approximately 64-72 hours.

Read-outs that look alike come from different tables or passages of the source.

What is called IC50 is the concentration at which inhibition is half-maximal.

Turning to `CC(=O)c1ccc(-c2cc(Cl)c3c(c2)CC(CNC(=O)/C=C/c2ccno2)O3)s1` (stereo not drawn) [Compound 293, (E)-N-((5-(5-acetylthiophen-2-yl)-7-chloro-2,3-dihydrobenzofuran-2-yl)methyl)-3-(isoxazol-5-yl)acrylamide], the concentration for half-maximal inhibition (IC50) in assay [1] (setting [4]), in assay [2] (setting [4]) and in assay [3] (setting [4]) was > 30 µM each time.

On to `CC(=O)c1ccc(-c2cc(Cl)c3c(c2)CC(CNC(=O)/C=C/c2c(C)nn(CC(C)C)c2Cl)O3)s1` (stereo not drawn) [Compound 154, (E)-N-((5-(5-acetylthiophen-2-yl)-7-chloro-2,3-dihydrobenzofuran-2-yl)methyl)-3-(5-chloro-1-isobutyl-3-methyl-1H-pyrazol-4-yl)acrylamide], for which the IC50 in assay [1] (setting [5]), in assay [2] (setting [5]) and in assay [3] (setting [5]) was > 30 µM in each case.

As for `CC(=O)c1ccc(-c2cc(Cl)c3c(c2)CC(CNC(=O)/C=C/n2cncn2)O3)s1` (stereo not drawn) [Compound 229, (E)-N-((5-(5-acetylthiophen-2-yl)-7-chloro-2,3-dihydrobenzofuran-2-yl)methyl)-3-(1H-1,2,4-triazol-1-yl)acrylamide], the 50% inhibitory concentration (IC50) in assay [1] (setting [4]), in assay [2] (setting [4]) and in assay [3] (setting [4]) was > 30 µM throughout.

Consider `Cc1ccc(-c2cc(Cl)c3c(c2)CC(CNC(=O)/C=C/c2cccnc2)O3)cc1` (stereo not drawn) [Compound 15, (E)-N-((7-chloro-5-p-tolyl-2,3-dihydrobenzofuran-2-yl)methyl)-3-(pyridin-3-yl) acrylamide], for which the IC50 in assay [1] (setting [5]) is 0.1 to 5 µM; in assay [2] (setting [5]), 0.1 to 5 µM; in assay [3] (setting [5]), 5 to 30 µM.

Take `CC(=O)c1ccc(-c2cc(Cl)c3c(c2)CC(CNC(=O)/C=C/c2ccncc2)O3)s1` (stereo not drawn) [Compound 24, (E)-N-((5-(5-acetylthiophen-2-yl)-7-chloro-2,3-dihydrobenzofuran-2-yl)methyl)-3-(pyridin-4-yl)acrylamide]: the IC50 in assay [1] (setting [5]), in assay [2] (setting [5]) and in assay [3] (setting [5]) was > 30 µM each time.

Take `COc1ccc(/C=C/C(=O)NCC2Cc3cc(-c4ccc(C(C)=O)s4)cc(Cl)c3O2)cn1` (stereo not drawn) [Compound 296, (E)-N-((5-(5-acetylthiophen-2-yl)-7-chloro-2,3-dihydrobenzofuran-2-yl)methyl)-3-(6-methoxypyridin-3-yl)acrylamide]: the IC50 was 5 to 30 µM in assay [1] (setting [4]), 5 to 30 µM in assay [2] (setting [4]) and > 30 µM in assay [3] (setting [4]).

In the case of `O=C(/C=C/c1cccnc1)NCC1Cc2cc(-c3ccc(C(=O)N4CCOCC4)cc3)cc(Cl)c2O1` (stereo not drawn) [Compound 29], the half-inhibitory concentration (IC50) in assay [1] (setting [5]) was < 0.1 µM; in assay [2] (setting [5]), < 0.1 µM; in assay [3] (setting [5]), 0.1 to 5 µM.

In the case of `CC(=O)c1ccc(-c2cc(Cl)c3c(c2)CC(CNC(=O)/C=C/c2nccs2)O3)s1` (stereo not drawn) [Compound 207], the IC50 in assay [1] (setting [4]), in assay [2] (setting [4]) and in assay [3] (setting [4]) was > 30 µM in each case.

`CN(C)C(=O)c1ccc(-c2cc(Cl)c3c(c2)CC(CNC(=O)/C=C/c2ccc(N)nc2)O3)cc1` (stereo not drawn) [Compound 233, (E)-4-(2-((3-(6-aminopyridin-3-yl)acrylamido)methyl)-7-chloro-2,3-dihydrobenzofuran-5-yl)-N,N-dimethylbenzamide]: the concentration for half-maximal inhibition (IC50) was 0.1 to 5 µM in assay [1] (setting [4]), < 0.1 µM in assay [2] (setting [4]) and 5 to 30 µM in assay [3] (setting [4]).

Consider `CC(=O)c1ccc(-c2cc(Cl)c3c(c2)CC(CNC(=O)/C=C/c2cnc(C(C)(C)C)s2)O3)s1` (stereo not drawn) [Compound 205, (E)-N-((5-(5-acetylthiophen-2-yl)-7-chloro-2,3-dihydrobenzofuran-2-yl)methyl)-3-(2-tert-butylthiazol-5-yl)acrylamide], for which the IC50 is 5 to 30 µM in assay [1] (setting [4]), 0.1 to 5 µM in assay [2] (setting [4]) and > 30 µM in assay [3] (setting [4]).

Turning to `Nc1ccc(/C=C/C(=O)NCC2Cc3cc(-c4ccc(C(=O)NNc5cnccn5)cc4)cc(Cl)c3O2)cn1` (stereo not drawn) [Compound 904, (E)-3-(6-aminopyridin-3-yl)-N-((7-chloro-5-(4-(2-(pyrazin-2-yl) hydrazine-1-carbonyl)phenyl)-2,3-dihydrobenzofuran-2-yl)methyl)acrylamide], the IC50 in assay [1] (setting [4]) was < 0.1 µM; in assay [2] (setting [4]), < 0.1 µM; in assay [3] (setting [4]), 0.1 to 5 µM.

Take `CC(=O)c1ccc(-c2cc(Cl)c3c(c2)CC(CNC(=O)/C=C/c2cncc(C)c2)O3)s1` (stereo not drawn) [Compound 280, (E)-N-((5-(5-acetylthiophen-2-yl)-7-chloro-2,3-dihydrobenzofuran-2-yl)methyl)-3-(5-methylpyridin-3-yl)acrylamide]: the figures for the IC50 in assay [1] (setting [4]), in assay [2] (setting [4]) and in assay [3] (setting [4]) were 0.1 to 5 µM, 0.1 to 5 µM and > 30 µM, respectively.

In the case of `Nc1ccc(/C=C/C(=O)NCC2Cc3cc(-c4ccc(C(=O)N5CCOCC5)cc4)cc(O)c3O2)cn1` (stereo not drawn) [Compound 347, (E)-3-(6-aminopyridin-3-yl)-N-((7-hydroxy-5-(4-(morpholine-4-carbonyl)phenyl)-2,3-dihydrobenzofuran-2-yl)methyl)acrylamide], the IC50 was 0.1 to 5 µM in assay [1] (setting [4]), > 30 µM in assay [2] (setting [4]) and 0.1 to 5 µM in assay [3] (setting [4]).

`O=C(/C=C/c1cccnn1)NCC1Cc2cc(-c3ccc(C(=O)N4CCOCC4)cc3)cc(Cl)c2O1` (stereo not drawn) [Compound 236, (E)-N-((7-chloro-5-(4-(morpholine-4-carbonyl)phenyl)-2,3-dihydrobenzofuran-2-yl)methyl)-3-(pyridazin-3-yl)acrylamide]: the 50% inhibitory concentration (IC50) in assay [1] (setting [4]), in assay [2] (setting [4]) and in assay [3] (setting [4]) was 0.1 to 5 µM in each case.

`CC(=O)c1ccc(-c2cc(Cl)c3c(c2)CC(CNC(=O)/C=C/c2ccc(C#N)cc2)O3)s1` (stereo not drawn) [Compound 112, (E)-N-((5-(5-acetylthiophen-2-yl)-7-chloro-2,3-dihydrobenzofuran-2-yl)methyl)-3-(4-cyanophenyl)acrylamide]: the IC50 in assay [1] (setting [5]), in assay [2] (setting [5]) and in assay [3] (setting [5]) was > 30 µM throughout.

Consider `CC(=O)c1ccc(-c2cc(Cl)c3c(c2)CC(CNC(=O)/C=C/c2nc4ccccc4s2)O3)s1` (stereo not drawn) [Compound 190, (E)-N-((5-(5-acetylthiophen-2-yl)-7-chloro-2,3-dihydrobenzofuran-2-yl)methyl)-3-(benzo[d]thiazol-2-yl)acrylamide], for which the IC50 in assay [1] (setting [5]), in assay [2] (setting [5]) and in assay [3] (setting [5]) was > 30 µM throughout.

For `Nc1ccc(/C=C/C(=O)NCC2Cc3cc(-c4cc(F)c(C(=O)N5CC(F)(F)C5)c(F)c4)cc(Cl)c3O2)cn1` (stereo not drawn) [Compound 335, (E)-3-(6-aminopyridin-3-yl)-N-((7-chloro-5-(4-(3,3-difluoroazetidine-1-carbonyl)-3,5-difluorophenyl)-2,3-dihydrobenzofuran-2-yl)methyl)acrylamide], the IC50 in assay [1] (setting [4]) was < 0.1 µM; in assay [2] (setting [4]), < 0.1 µM; in assay [3] (setting [4]), 0.1 to 5 µM.

Turning to `CC(=O)c1ccc(-c2cc(Cl)c3c(c2)CC(CNC(=O)/C=C/c2ccc[n+]([O-])c2)O3)s1` (stereo not drawn) [Compound 28, (E)-N-((5-(5-acetylthiophen-2-yl)-7-chloro-2,3-dihydrobenzofuran-2-yl)methyl)-3-(pyridine-1-oxide-3-yl)acrylamide], the IC50 in assay [1] (setting [5]), in assay [2] (setting [5]) and in assay [3] (setting [5]) was > 30 µM in each case.

For the molecule `CC1(C)COCCN1C(=O)c1ccc(-c2cc(Cl)c3c(c2)CC(/C=C/C(=O)NCc2ccc(N)nc2)O3)cc1` (stereo not drawn) [Compound 367, (E)-N-((6-aminopyridin-3-yl)methyl)-3-(7-chloro-5-(4-(3,3-dimethylmorpholine-4-carbonyl)phenyl)-2,3-dihydrobenzofuran-2-yl)acrylamide], the results for the IC50 in assay [1] (setting [4]), in assay [2] (setting [4]) and in assay [3] (setting [4]) were < 0.1 µM, < 0.1 µM and 0.1 to 5 µM, respectively.

As for `CC(=O)c1ccc(-c2cc(Cl)c3c(c2)CC(CNC(=O)/C=C/c2nccn2-c2ccccc2)O3)s1` (stereo not drawn) [Compound 201, (E)-N-((5-(5-acetylthiophen-2-yl)-7-chloro-2,3-dihydrobenzofuran-2-yl)methyl)-3-(1-phenyl-1H-imidazol-2-yl)acrylamide], the IC50 in assay [1] (setting [4]), in assay [2] (setting [4]) and in assay [3] (setting [4]) was 5 to 30 µM throughout.

For `CC(=O)c1ccc(-c2cc(Cl)c3c(c2)CC(CNC(=O)/C=C/C2C(Cl)=NC4=CC=CCN42)O3)s1` (stereo not drawn) [Compound 120, (E)-N-((5-(5-Acetylthiophen-2-yl)-7-chloro-2,3-dihydrobenzofuran-2-yl)methyl)-3-(2-chloro-3,5-dihydroimidazo[1,2-a]pyridin-3-yl)acrylamide], the IC50 in assay [1] (setting [5]), in assay [2] (setting [5]) and in assay [3] (setting [5]) was 5 to 30 µM in each case.

As to `Nc1ccc(CNC(=O)/C=C/C2Cc3cc(-c4ccc(S(=O)(=O)N5CCOCC5)cc4)cc(Cl)c3O2)cn1` (stereo not drawn) [Compound 350, (E)-N-((6-aminopyridin-3-yl)methyl)-3-(7-chloro-5-(4-(morpholinosulfonyl)phenyl)-2,3-dihydrobenzofuran-2-yl)acrylamide], the figures for the IC50 in assay [1] (setting [4]), in assay [2] (setting [4]) and in assay [3] (setting [4]) were 0.1 to 5 µM, > 30 µM and 0.1 to 5 µM, respectively.

With `Nc1ccc(/C=C/C(=O)NCC2Cc3c(-c4ccccc4C(=O)N4CC(F)(F)C4)ccc(Cl)c3O2)cn1` (stereo not drawn) [Compound 341, (E)-3-(6-aminopyridin-3-yl)-N-((7-chloro-4-(2-(3,3-difluoroazetidine-1-carbonyl)phenyl)-2,3-dihydrobenzofuran-2-yl)methyl)acrylamide], the results for the half-maximal inhibitory concentration (IC50) in assay [1] (setting [4]), in assay [2] (setting [4]) and in assay [3] (setting [4]) were < 0.1 µM, 0.1 to 5 µM and < 0.1 µM, respectively.

Source of the values: patent publication US9938258B2 (Karyopharm Therapeutics Inc., priority 2012, dated 2018).
